Two molecules from patent US12122752B1, “5-(2,4,5-tris(4-chlorophenyl)-1H-imidazol-1-yl)pentanoic acid as an antimicrobial compound” (KING FAISAL UNIVERSITY, priority 2023, dated 2024) can be followed below.

Molecules are shown by their SMILES.

Holding throughout (type): cell-based
The test system of one test is Bacillus Cereus. Briefly: Agar plate disc-diffusion, antibacterial activity by inhibition zone. The settings on record: gram positive, nutrient agar, 37° C., 48 hours. The procedure:
(§1) The agar plate disc-diffusion method was applied. […] The discs were then placed onto the surface of agar plates (nutrient agar for bacteria and Sabouraud's dextrose agar for fungi) seeded with the test organism. Each plate contained 15 mL of the agar medium, previously seeded with 0.2 mL of the broth culture of each organism pregrown for 18 hours. The plates were incubated at 37° C. for 48 hours, and 72 hours for fungi. The inhibition zones was measured in mm. Discs impregnated with DMSO were used as a control, and its inhibition zone was subtracted from the tested compound actual inhibition zone.
(§2) Their antibacterial screened against gram positive bacteria namely Bacillus cereus and Staphylococcus aureus and gram-negative bacterial strains namely Pseudomonas aeruginosa and Escherichia coli, while their antifungal activity screened against Aspergillus flavus and Chrysosporium keratinophilum as shown in Table 1 and 2.
In general terms: In agar diffusion tests the substance spreads into inoculated agar from a disc or well.

The subject of a further test is Escherichia coli. Described as above. Conditions: gram negative, nutrient agar, 37° C., 48 hours. On the procedure:
as §1, §2

In another test the test system is Pseudomonas aeruginosa. The description is as above. The settings on record: gram negative, nutrient agar, 37° C., 48 hours. On the procedure: as §1, §2
In the next test the test system is Staphylococcus aureus. The test is described as above. The settings on record: gram positive, nutrient agar, 37° C., 48 hours. On the procedure:
as §1, §2

In the next test the test system is Aspergillus flavus. The test is described as follows: Agar plate disc-diffusion, antifungal activity by inhibition zone. Conditions: Sabouraud's dextrose agar, 72 hours. On the procedure:
(§3) The agar plate disc-diffusion method was applied. Sterilized filter papers (6 mm in diameter) were wetted with 10 μL of a solution of 5-(2,4,5-tris(4-chlorophenyl)-1H-imidazol-1-yl)pentanoic acid (V) to be tested, containing 10 mg/mL in DMSO, and the discs were allowed to air dry. The discs were then placed onto the surface of agar plates (nutrient agar for bacteria and Sabouraud's dextrose agar for fungi) seeded with the test organism. Each plate contained 15 mL of the agar medium, previously seeded with 0.2 mL of the broth culture of each organism pregrown for 18 hours. The plates were incubated at 37° C. for 48 hours, and 72 hours for fungi. The inhibition zones was measured in mm. Discs impregnated with DMSO were used as a control, and its inhibition zone was subtracted from the tested compound actual inhibition zone.
as §2

Test [1] has as its system Chrysosporium keratinophilum. The test is described as above. The settings on record: Sabouraud's dextrose agar, 72 hours. On the procedure:
as §3, §2

A further test relates to different microbes. Briefly: Antimicrobial testing, overall statement. Conditions: summary in words of Tables 1 and 2. On the procedure: as §3, §2
The mark [2] stands for this setting: A = concentration of comp. = 10,000 μL.
[3] abbreviates: B = concentration of comp. = 30,000 μL.
Setting [4] is: C = concentration of comp. = 50,000 μL.

Take `O=C(O)c1cn(C2CC2)c2cc(N3CCNCC3)c(F)cc2c1=O` [Cip., reference compound]: the inhibition zone in the test with Bacillus Cereus (setting [2]) is listed as 29 mm; in the test on Bacillus Cereus (setting [3]), 31 mm; with Bacillus Cereus (setting [4]), 42 mm; in the test with Escherichia coli (setting [2]) it was 30 mm; in the test on Escherichia coli (setting [3]), 39 mm; with Escherichia coli (setting [4]) it was 60 mm. In addition, the inhibition zone in the test with Pseudomonas aeruginosa (setting [2]) is 29 mm; with Pseudomonas aeruginosa (setting [3]) it was 30 mm; in the test with Pseudomonas aeruginosa (setting [4]), 53 mm; with Staphylococcus aureus (setting [2]), 42 mm; with Staphylococcus aureus (setting [3]), 44 mm; in the test with Staphylococcus aureus (setting [4]), 53 mm. The inhibition zone in the test on Aspergillus flavus (setting [2]) amounted to 29 mm; with Aspergillus flavus (setting [3]), 32 mm; with Aspergillus flavus (setting [4]), 42 mm; in test [1] (setting [2]), 29 mm; in test [1] (setting [3]), 30 mm; in test [1] (setting [4]) it was 53 mm.
In the case of `O=C(O)CCCCn1c(-c2ccc(Cl)cc2)nc(-c2ccc(Cl)cc2)c1-c1ccc(Cl)cc1` [V, 5-(2,4,5-tris(4-chlorophenyl)-1H-imidazol-1-yl)pentanoic acid], the inhibition zone came to 23 mm in the test on Bacillus Cereus (setting [2]); 25 mm in the test with Bacillus Cereus (setting [3]); 37 mm in the test with Bacillus Cereus (setting [4]); 27 mm in the test with Escherichia coli (setting [2]); 35 mm with Escherichia coli (setting [3]); 50 mm in the test with Escherichia coli (setting [4]). Also, the inhibition zone in the test on Pseudomonas aeruginosa (setting [2]) is listed as 25 mm; in the test with Pseudomonas aeruginosa (setting [3]), 30 mm; with Pseudomonas aeruginosa (setting [4]), 43 mm; with Staphylococcus aureus (setting [2]), 18 mm; with Staphylococcus aureus (setting [3]), 22 mm; with Staphylococcus aureus (setting [4]) it was 33 mm. The inhibition zone in the test on Aspergillus flavus (setting [2]) was 17 mm; in the test with Aspergillus flavus (setting [3]) it was 22 mm; in the test on Aspergillus flavus (setting [4]), 31 mm; in test [1] (setting [2]), 25 mm; in test [1] (setting [3]), 28 mm; in test [1] (setting [4]), 46 mm. Also, the “antimicrobials activities against different microbes” value in the test on different microbes was “excellent”.
